Laboratory results: paper PMC5431342, “Discovery of an enzyme and substrate selective inhibitor of ADAM10 using an exosite-binding glycosylated substrate” (Scientific Reports, 2016)

What was measured:
panel of metzincins = assay: Dose response against a panel of metzincins (MMP, meprin, ADAM assays); assay type: biochemical; conditions: reordered powder, dilutions starting at 100 µM
Description: Powders for 4 compounds (CID # 3117694, 730037, 3153587, and 236330) were reordered from corresponding vendors and tested in 10-point, 1:3 serial dilutions starting at 100 µM in triplicate against ADAM10 and ADAM17 and a panel of metzincins. We examined the activity and selectivity of lead CID 3117694 using an ADAM10 and 17 HPLC-based assays using glycosylated substrate (Fig. 2A).
All assays followed the same general protocol. 5 µL of 2x enzyme solution (5 nM) in assay buffer (50 mM Tricine, 50 mM NaCl, 10 mM CaCl2, 0.05% Brij-35, pH 7.5) were added to solid bottom black 384 plates (Nunc, cat# 264705). Next, test compounds and pharmacological controls were added to corresponding wells using a 384 pin tool device (V&P Scientific, San Diego). […] Reactions were incubated at RT for 1 h, after which the fluorescence was measured using the Synergy H4 multimode microplate reader (Biotek Instruments) (λexcitation = 324 nm, λemission = 390 nm).
Both assays followed the same general protocol. […] After 30 min incubation at RT, the reactions were started by addition of 5 µL of 2x solutions of substrates (20 µM, mepin α Mca-YVADAPK-K(Dnp); and for meprin β Mca-EDEDED-K(Dnp). Reactions were incubated at RT for 1 h, after which the fluorescence was measured using the Synergy H4 multimode microplate reader (Biotek Instruments) (λexcitation = 324 nm, λemission = 390 nm).

MDA-MB-231 cells = assay: Wound closure assay, MDA-MB-231; assay type: cell-based; conditions: MDA-MB-231, 10 µM
Description: For live-cell analysis of scratch-induced wound closure, 2.5 × 10^4 MDA-MB-231 and A549 cells per well were seeded in collagen G (40 µg/mL) (Biochrom AG, Germany) coated 96-well plates near confluence and allowed to grow overnight in standard medium (DMEM supplemented with 10% FBS and 1% P/S). At confluence, cells were pretreated 2 h with mitomycin (10 µg/mL) (Medac, Germany) to block cell proliferation and washed with standard media. Afterwards, cells were incubated in the presence of inhibitor at the indicated concentrations or DMSO (0.1% vehicle). Subsequently, a defined scratch (wound width between 642–767 µm) was performed in each well using the certified Essen Bioscience automated 96-wound maker^TM (Essen Biosciences, Hertfordshire, UK) for 96 well-plates. The medium was removed and 100 µL standard medium were added to the wells containing either inhibitor or DMSO. The closure of the wounded area was monitored using the IncuCyte ZOOM system by taking images of each well every 2 h over a period of 24 h. The reduction of wound width was determined over time using the IncuCyte ZOOM microscope software 2014A. Data were expressed as percentage of wound closure after 8 h.

[1] = tested on: shedding of CXCL16 in A549 cells; assay: CXCL16 shedding inhibition (ELISA); assay type: cell-based, human
Description: A549 cells were seeded in 12-well plates and grown to confluency in DMEM supplemented with 10% FBS and 1% P/S. Subsequently, cells were starved serum-free for 4 h, incubated for 1 h with GI 254023X or CID 3117694 (concentrations as indicated) or DMSO (vehicle, 0.1%) and afterwards stimulated with 10 ng/mL TNF and 10 ng/mL IFN for 24 h or left untreated in the presence of inhibitors or DMSO. Supernatants (500 µL) were harvested and centrifuged for 10 min at 16100 g and 4 °C. […] of CXCL16 were measured using the DuoSet human CXCL16 Elisa Kit (R&D systems, Wiesbaden, Germany). Samples were stored at −80 °C and diluted 2-fold after careful thawing. The standard ranged from 0 to 25,000 pg/mL with a detection limit of 391 pg/mL. For detection of soluble syndecan-4, conditioned media (200 µL) were 2-fold diluted in blotting buffer (0.15 M NaCl buffered to pH 4.5 with 50 mM sodium acetate, and with 0.1% Triton X-100), and applied to cationic polyvinylidene difluoride-based membranes (Hybond-N, Amersham Biosciences, Freiburg, Germany) under vacuum in a dot blot apparatus (Amersham Biosciences). The membranes were blocked for 1 h with PBS-T supplemented with 1% bovine serum albumin and 3% milk powder. Human syndecan-4 was detected by incubating membranes overnight at 4 °C with mouse anti-syndecan-4 mAb (0.6 µg/mL) followed by incubation with POD-coupled goat anti-mouse Ab (27 ng/mL in PBS, Jackson Immunoresearch). Chemiluminescence was recorded and quantified using the luminescent image analyzer LAS3000 substrate after addition of ECL advanced substrate (Amersham Biosciences).

ADAM17 = biological target: T1, ADAM17 (Homo sapiens, UniProt P78536); assay: HPLC-based ADAM17 assay using glycosylated substrate; assay type: biochemical
T1 construct: purchased R&D Systems 930-ADB
T1 sequence (P78536 215-824): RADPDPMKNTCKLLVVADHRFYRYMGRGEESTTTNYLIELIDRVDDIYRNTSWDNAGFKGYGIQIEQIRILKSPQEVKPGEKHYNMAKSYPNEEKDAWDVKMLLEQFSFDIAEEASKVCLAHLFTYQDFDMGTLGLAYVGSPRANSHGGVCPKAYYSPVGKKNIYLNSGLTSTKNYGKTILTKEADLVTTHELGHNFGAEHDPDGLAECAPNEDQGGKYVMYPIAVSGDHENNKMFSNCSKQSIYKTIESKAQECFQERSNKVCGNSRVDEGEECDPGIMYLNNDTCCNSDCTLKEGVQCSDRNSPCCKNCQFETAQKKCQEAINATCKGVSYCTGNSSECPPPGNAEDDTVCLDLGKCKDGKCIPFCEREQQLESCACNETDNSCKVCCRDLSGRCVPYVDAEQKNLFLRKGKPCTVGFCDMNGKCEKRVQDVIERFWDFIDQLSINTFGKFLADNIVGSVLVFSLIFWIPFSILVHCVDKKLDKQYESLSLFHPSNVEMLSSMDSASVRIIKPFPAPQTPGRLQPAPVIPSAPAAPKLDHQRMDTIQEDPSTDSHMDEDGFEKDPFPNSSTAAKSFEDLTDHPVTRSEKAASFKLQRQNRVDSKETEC
Description: Both assays followed the same general protocol. 30 µL of 3x enzyme solution (30 nM) in assay buffer (10 mM Hepes, 0.001% Brij-35, pH 7.5) were added to solid bottom black 384 plates. Next, 30 µL of 3x test compounds and pharmacological controls were added to corresponding wells. After 30 min incubation at RT, the reactions were started by addition of 30 µL of 3x solution of glycosylated substrate (30 µM). Reactions were incubated at RT for 2 h and then quenched with 10 µL of 500 µM EDTA. Analytical RP-HPLC was performed on a 1260 Infinity Agilent Technologies liquid chromatograph equipped with an Agilent Poroshell 120 column. Eluents were 0.1% TFA in water (A) and 0.1% TFA in acetonitrile (B). The elution gradient was 0–98% B in 15 min with a flow rate of 1.0 mL/min. Detection was at λ = 214, 360, and 460 nm.

- inhibition of ADAM17-mediated hydrolysis of glycosylated substrate (ADAM17): not appreciably inhibited
SMILES: COc1cccc(C(=O)NNC(=O)C(=O)Nc2ccc(C)c(Cl)c2)c1 [CID 3117694]
- inhibition of 11 tested metzincins (including ADAM10 and ADAM17) (panel of metzincins): only ADAM10 was appreciably inhibited
- effect on wound healing (MDA-MB-231 cells): significantly decreased wound healing
- inhibition of cytokine-inducible shedding of CXCL16 ([1]; TNF/IFN stimulation 24 h): inhibited cytokine-inducible
- inhibition of constitutive shedding of CXCL16 ([1]; unstimulated): not the constitutive shedding
